From patent US20230266303A1, “SYSTEM” (GTINVENT LIMITED, priority 2020, published 2023)
Values joined by “and” are separate entries in the source; they are usually repeats but may differ in a detail not shown here. Equal entries are not always repeated.

Assays:
Assay type in all cases: cell-based, human
dSH-SY5Y cells = assay: Internalisation of dGAE-488 into cells by confocal microscopy
Protocol: Undifferentiated SH-SY5Y human neuroblastoma cells were grown in Dulbecco's Modified Eagle Medium/Nutrient Mixture F-12 (DMEM/F-12) supplemented with 10% Foetal Calf Serum (FCS), 1% Penicillin/Streptomycin (P/S) and 1% L-glutamine. For differentiation, SH-SY5Y cells were plated at a density of 50,000 cells per well in 24-well plates or 300,000 cells per well in 6-well plates. For immunofluorescence, cells were plated onto Menzel-Gläser coverslips (Thermo Scientific). For live-cell imaging, cells were plated on 35-mm dishes on a 1.5-mm coverslip (Mattek). On the first day of differentiation, media was replaced with low-serum culture media (DMEM/F-12 containing 1% FCS, 1% P/S and 1% L-glutamine) containing 10 μM all-trans retinoic acid (RA) (Sigma-Aldrich) and cells were incubated for 48 h. On day 3, this process was repeated with fresh RA and cells were incubated for a further 48 h. On day 5, the cells were washed once in serum-free culture media to remove traces of serum. […] Differentiated cells (dSH-SY5Y) were ready to use for experiments on day 7. […]
(§1) FIJI (https://fiji.sc) imaging processing package (J. Schindelin et al., Nat. Methods, vol. 9, no. 7, pp. 676-682, (2012)) was used for all image analysis. For quantification of fluorescence intensities, images were Z-projected to maximal intensity. […] Area-integrated intensity and mean grey value were measured as well as three selections from around the cell with no fluorescence (background). The corrected total cell fluorescence (CTCF) was then calculated using the equation: […]
For quantification of internalised dGAE-488, a focal plane from the middle of the cell that contained maximal DAPI fluorescence was selected and subjected to analysis.
The uptake of soluble and aggregated dGAE into dSH-SY5Y cells was investigated in order to examine whether aggregation state affects the efficiency of internalisation. The labelled dGAE-488 form was used to permit uptake to be visualised and measured having corrected for total cell fluorescence. […]

[1] = system: endogenous tau in dSH-SY5Y cells; assay: Immunofluorescence of endogenous tau (AT180, AT8, Tau-1) after dGAE-488 exposure; details: 1 μM soluble dGAE-488, 24 h
Protocol: Cell culture medium was aspirated from dSH-SY5Y cells and washed once with PBS. Cells were fixed in 4% (w/v) paraformaldehyde (PFA) in PBS for 15 minutes followed by three washes in PBS. For permeabilization, the cells were incubated in 0.25% (v/v) Triton X-100 in PBS for 10 minutes. Cells were blocked in 2% (w/v) BSA in PBS for 1 h, followed by three washes in PBS. Primary antibodies diluted in 2% (w/v) BSA in PBS and were incubated with the cells for 1 h. The primary antibodies and dilutions used were; AT180 (anti-pT231) (1:250) (Thermo Scientific), AT8 (anti-pS202-T205) (1:500) (Thermo Scientific) and Tau1 (dephosphorylated tau at S195, 198, 199 and 202) (Merck Millipore). Cells were incubated with goat anti-mouse-Alexa Fluor® 594 (1:1000) (Invitrogen™, Thermo Scientific) diluted in 2% (w/v) BSA in PBS for 1 h in the dark. Cells were washed 3 times in PBS between antibody incubations. Cells were mounted onto glass slides using Prolong Gold mounting medium containing 4,6-diamidino-2-phenylindole (DAPI). […]
as §1
Therefore, it was further investigated whether internalised soluble dGAE-488 may be capable of altering the aggregation or phosphorylation state of endogenous tau. […] Cells were examined for colocalisation of internalised dGAE-488 and endogenous tau and the fluorescence intensity of labelled tau in the cell body was quantified in individual cells for each antibody. […] We have previously shown that tau dephosphorylated between amino acids 192-204 detected using Tau-1 antibody, is found in the nucleus in dSH-SY5Y cells (Maina et al., Acta Neuropath. Comm, Vol. 6 No. 70, pp 1-13 (2018)).

[2] = system: acidic vesicles (lysosomes and endosomes) in dSH-SY5Y cells; assay: LysoTracker labelling of acidic organelles and colocalisation with dGAE-488; details: soluble dGAE-488, 24 h; buffer 100±5.23%
Protocol: Cells were plated on 35-mm dishes on a 1.5-mm coverslip (Mattek). Following differentiation, dGAE-488 (5 μM) was added to the cells for 24 h. For labelling lysosomes and endosomes, LysoTracker® red (Life Technologies) was diluted in culture media at a final concentration of 50 nM and incubated for 90 mins before imaging using a Leica SP8 confocal microscope.
All confocal microscopy imaging was carried using a Leica SP8 confocal microscope. The instrument setting used PMT 3 and PMT Trans channels/lasers and images were acquired with a HC PLAPoCs2 63×/1.40 oil-immersion objective lens. Samples were scanned sequentially to prevent spectral bleed through. All images were collected as Z-stacks for all channels using a step size of 0.5 μm. Five to ten Z-stacks were taken for each sample and each experiment was repeated three times or more. […]
Intracellular fluorescent punctate particles were observed within the cytoplasm, close to the nucleus after 24 h of exposure of neurons to soluble dGAE-488. […] There was a significant increase in the intensity of the LysoTracker® fluorescence in cells exposed to soluble dGAE-488 compared to buffer-treated control cells (211.9±9.9%, p<0.0001; FIG. 6Ai, Aii).

dGAE-488: dGAE covalently labelled with Alexa Fluor 488
488 fluorescence intensity in the cell body (internalisation) (dSH-SY5Y cells; aggregated (72 h agitated) dGAE-488, 1 μM, 24 h, mean±SEM, b194 prints AU per cell): 474.1±95.97 AU and 474±96 AU | incubation time at which internalised protein is detected in cells (dSH-SY5Y cells; soluble form, 5 μM dGAE-488, live confocal imaging t=0 h to 14 h): 2 h | AT8 (pS202-T205) fluorescence intensity as a percentage of buffer-treated cells ([1]; buffer 100±3.51%): 270.7±22.5% | AT180 (pT231) fluorescence intensity as a percentage of buffer-treated cells ([1]; buffer 100±5.2%): 143.5±7.8% | Tau-1 (dephosphorylated tau) fluorescence intensity as a percentage of buffer-treated cells ([1]; buffer 100±7.3%): 59.17±3.6% | LysoTracker fluorescence intensity as a percentage of buffer-treated cells [2]: 211.9±9.89% and 211.9±9.9%
